The values below come from PubChem BioAssay AID248 (DTP/NCI, 2004).

Values joined by “and” are separate entries in the source; they are usually repeats but may differ in a detail not shown here. Identical values can stand only once. Inconclusive results and toxic doses are left out.

This experiment has as its system L1210 leukemia ip in BDF1 mice, survival T/C. The experiment can be described thus: NCI In Vivo Anticancer Drug Screen. Data for tumor model L1210 Leukemia (intraperitoneal) in B6D2F1 (BDF1) mice. The note with it: endpoint: mean survival time, higher = longer survival. The gist of the method:
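Transplantable tumor model; survival measured in treated vs vehicle control mice. Value = treated/control.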

Where [1] appears, read: dose: 100.0 mg/kg/injection, schedule: Q01DX009 (ip), vehicle: saline with Tween-80.
Setting [2] is: dose: 200.0 mg/kg/injection, schedule: Q01DX009 (ip), vehicle: saline with Tween-80.
Setting [3] is: dose: 400.0 mg/kg/injection, schedule: Q01DX009 (ip), vehicle: saline with Tween-80.
The mark [4] stands for this setting: dose: 100.0 mg/kg/injection, schedule: Q04DX003 (ip), vehicle: saline with Tween-80.
Setting [5] is: dose: 200.0 mg/kg/injection, schedule: Q04DX003 (ip), vehicle: saline with Tween-80.
The mark [6] stands for this setting: dose: 400.0 mg/kg/injection, schedule: Q04DX003 (ip), vehicle: saline with Tween-80.
[7] abbreviates: dose: 75.0 mg/kg/injection, schedule: Q01DX001 (ip), vehicle: saline.
Where [8] appears, read: dose: 12.5 mg/kg/injection, schedule: Q01DX009 (ip), vehicle: Klucel (hydroxypropylcellulose) (HPC).
Setting [9] is: dose: 25.0 mg/kg/injection, schedule: Q01DX009 (ip), vehicle: Klucel (hydroxypropylcellulose) (HPC).
Setting [10] is: dose: 50.0 mg/kg/injection, schedule: Q01DX009 (ip), vehicle: Klucel (hydroxypropylcellulose) (HPC).
The mark [11] stands for this setting: dose: 100.0 mg/kg/injection, schedule: Q04DX003 (ip), vehicle: Klucel (hydroxypropylcellulose) (HPC).
The mark [12] stands for this setting: dose: 200.0 mg/kg/injection, schedule: Q04DX003 (ip), vehicle: Klucel (hydroxypropylcellulose) (HPC).
The mark [13] stands for this setting: dose: 400.0 mg/kg/injection, schedule: Q04DX003 (ip), vehicle: Klucel (hydroxypropylcellulose) (HPC).
Where [14] appears, read: dose: 100.0 mg/kg/injection, schedule: Q01DX009 (ip), vehicle: Klucel (hydroxypropylcellulose) (HPC).
The mark [15] stands for this setting: dose: 200.0 mg/kg/injection, schedule: Q01DX009 (ip), vehicle: Klucel (hydroxypropylcellulose) (HPC).
Setting [16] is: dose: 400.0 mg/kg/injection, schedule: Q01DX009 (ip), vehicle: Klucel (hydroxypropylcellulose) (HPC).

Turning to `O=[N+]([O-])c1cccc(OCCCc2ccccc2)c1`, the T/C by setting is: under setting [1], 98 % of control; under setting [2], 102 % of control; under setting [3], 112 % of control.
Take `CCCCN=C=NCCCN(C)C`: the T/C by setting is: (dose: 62.5 mg/kg/injection, schedule: Q04DX003 (ip), vehicle: Klucel (hydroxypropylcellulose) (HPC)) 103 % of control; (dose: 125.0 mg/kg/injection, schedule: Q04DX003 (ip), vehicle: Klucel (hydroxypropylcellulose) (HPC)) 96 % of control; (dose: 250.0 mg/kg/injection, schedule: Q04DX003 (ip), vehicle: Klucel (hydroxypropylcellulose) (HPC)) 92 % of control.
For the compound `Cc1ccc([Si](C)Cl)cc1`, the T/C was 98 % of control under setting [4], 94 % of control under setting [5] and 90 % of control under setting [6].
For `O=C(O)C1C(c2ccccc2)CC(=O)N1c1ccc(Cl)cc1` (centres undefined), the T/C reads like this: (dose: 100.0 mg/kg/injection, schedule: Q04DX002 (ip), vehicle: Klucel (hydroxypropylcellulose) (HPC)) 102 % of control; (dose: 200.0 mg/kg/injection, schedule: Q04DX002 (ip), vehicle: Klucel (hydroxypropylcellulose) (HPC)) 91 % of control; (dose: 400.0 mg/kg/injection, schedule: Q04DX002 (ip), vehicle: Klucel (hydroxypropylcellulose) (HPC)) 94 % of control.
In the case of `C/C=C/Cn1cnc2c1c(=O)n(C)c(=O)n2C`, the T/C by setting is: under setting [4], 95 % of control; under setting [5], 95 % of control.
With `CN1CCN(Cc2cc(Cl)c3cccnc3c2O)CC1`, the T/C was 100 % of control under setting [7] and 106 % of control (dose: 150.0 mg/kg/injection, schedule: Q01DX001 (ip), vehicle: saline).
As to `S=C(NCN1CCNCC1)C(=S)NCN1CCNCC1`, the T/C under setting [8] was 97 % of control, the T/C under setting [9] was 100 % of control and the T/C under setting [10] is 93 % of control.
`O=c1ccnc([Se])[nH]1`: the T/C was 99 % of control (dose: 12.5 mg/kg/injection, schedule: Q04DX003 (ip), vehicle: saline with Tween-80); 105 % of control (dose: 25.0 mg/kg/injection, schedule: Q04DX003 (ip), vehicle: saline with Tween-80); 101 % of control (dose: 50.0 mg/kg/injection, schedule: Q04DX003 (ip), vehicle: saline with Tween-80); 92 % of control under setting [4]; 111 % of control under setting [5]; 101 % of control under setting [6].
As for `[N-]=[N+]=C1C=CC=C1C(=O)O`, the T/C by setting is: under setting [8], 98 % of control; under setting [9], 103 % of control; under setting [10], 97 % of control; (dose: 100.0 mg/kg/injection, schedule: Q04DX003 (ip), vehicle: acetone) 94 % of control; (dose: 200.0 mg/kg/injection, schedule: Q04DX003 (ip), vehicle: acetone) 93 % of control; (dose: 400.0 mg/kg/injection, schedule: Q04DX003 (ip), vehicle: acetone) 91 % of control.
In the case of `COc1ccc([N+](=O)[O-])c(O)c1C`, the T/C under setting [1] is 90 % of control, the T/C under setting [2] is 96 % of control and the T/C under setting [3] is 106 % of control.
As to `c1ccc(OCC2(N3CCCCC3)CCCC2)cc1`, the T/C (dose: 100.0 mg/kg/injection, schedule: Q04DX002 (ip), vehicle: saline with Tween-80) was 97 % of control.
Consider `COC(=O)CN(C(=O)c1ccc(OC(C)=O)cc1)c1ccccc1`, for which the T/C by setting is: under setting [11], 100 % of control; under setting [12], 94 % of control; under setting [13], 96 % of control.
For the compound `CC(C)C(NC(=O)OC(C)(C)C)C(=O)O` (centres undefined), the T/C (dose: 12.5 mg/kg/injection, schedule: Q01DX009 (ip), vehicle: alcohol) is 106 % of control; the T/C (dose: 25.0 mg/kg/injection, schedule: Q01DX009 (ip), vehicle: alcohol) is 109 % of control; the T/C (dose: 25.0 mg/kg/injection, schedule: Q04DX003 (ip), vehicle: other) is 107 % of control; the T/C (dose: 50.0 mg/kg/injection, schedule: Q01DX009 (ip), vehicle: alcohol) is 96 % of control; the T/C (dose: 50.0 mg/kg/injection, schedule: Q04DX003 (ip), vehicle: other) is 93 % of control and 108 % of control; the T/C (dose: 100.0 mg/kg/injection, schedule: Q01DX001 (ip), vehicle: saline) is 103 % of control. For the same compound, the T/C reads like this: (dose: 100.0 mg/kg/injection, schedule: Q01DX009 (ip), vehicle: alcohol) 104 % of control; (dose: 100.0 mg/kg/injection, schedule: Q04DX003 (ip), vehicle: other) 94 % of control and 96 % of control; (dose: 200.0 mg/kg/injection, schedule: Q01DX009 (ip), vehicle: alcohol) 107 % of control; (dose: 200.0 mg/kg/injection, schedule: Q04DX003 (ip), vehicle: other) 101 % of control and 103 % of control.
In the case of `O=[N+]([O-])C1CCCCCCCCCCC1`, the T/C is 96 % of control (dose: 100.0 mg/kg/injection, schedule: Q01DX001 (ip), vehicle: other); 100 % of control (dose: 200.0 mg/kg/injection, schedule: Q01DX001 (ip), vehicle: other); 96 % of control (dose: 400.0 mg/kg/injection, schedule: Q01DX001 (ip), vehicle: other).
On to `O=P(Cc1ccccc1)(c1ccccc1)c1ccccc1`, for which the T/C is 90 % of control under setting [11], 90 % of control under setting [12] and 94 % of control under setting [13].
`Cc1cc2oc(/C=N/NC(N)=S)c(C)c2cc1C`: the T/C is 100 % of control under setting [14], 99 % of control under setting [15] and 105 % of control under setting [16].
As for `C[n+]1cccc2cc(Br)ccc21`, the T/C is 100 % of control (dose: 5.0 mg/kg/injection, schedule: Q01DX001 (ip), vehicle: other); 107 % of control (dose: 10.0 mg/kg/injection, schedule: Q01DX001 (ip), vehicle: other); 111 % of control (dose: 20.0 mg/kg/injection, schedule: Q01DX001 (ip), vehicle: other); 105 % of control (dose: 40.0 mg/kg/injection, schedule: Q01DX001 (ip), vehicle: other).
Consider `CC[n+]1ccc(C)c2ccccc21`, for which the T/C was 102 % of control and 103 % of control (dose: 12.5 mg/kg/injection, schedule: Q04DX002 (ip), vehicle: saline); 103 % of control (dose: 12.5 mg/kg/injection, schedule: Q04DX003 (ip), vehicle: saline); 95 % of control and 98 % of control (dose: 25.0 mg/kg/injection, schedule: Q04DX002 (ip), vehicle: saline); 100 % of control (dose: 25.0 mg/kg/injection, schedule: Q04DX003 (ip), vehicle: saline); 95 % of control and 102 % of control (dose: 50.0 mg/kg/injection, schedule: Q04DX002 (ip), vehicle: saline); 105 % of control (dose: 50.0 mg/kg/injection, schedule: Q04DX003 (ip), vehicle: saline).
Consider `COc1cc2c(c(OC)c1OC)-c1ccc(SC)c(=O)cc1[C@@H](NC1OC(CO)C(O)C(O)C1O)CC2` (some centres undefined), for which the T/C is 102 % of control (dose: 25.0 mg/kg/injection, schedule: Q01DX005 (ip), vehicle: saline); 150 % of control (dose: 50.0 mg/kg/injection, schedule: Q01DX009 (ip), vehicle: saline); 95 % of control (dose: 75.0 mg/kg/injection, schedule: Q01DX009 (ip), vehicle: saline); 120 % of control (dose: 150.0 mg/kg/injection, schedule: Q01DX005 (ip), vehicle: saline).
On to `CC1=C(O)C(=O)C(c2c(C)cc(C)c(Br)c2C)=C(O)C1=O`, for which, for the setting “dose: 75.0 mg/kg/injection, schedule: Q01DX009 (ip), vehicle: Klucel (hydroxypropylcellulose) (HPC)”, the T/C is 117 % of control.
In the case of `CCOC(=O)P(C(=O)OCC)C(=O)OCC`, under setting [7], the T/C is 97 % of control.
With `CCCCCCCC/C=C\CCCCCCCC(=O)OCCCCCCCCCCCCCCCCC`, the T/C was 106 % of control (dose: 75.0 mg/kg/injection, schedule: Q01DX009 (ip), vehicle: saline sonified); 94 % of control under setting [14]; 104 % of control (dose: 150.0 mg/kg/injection, schedule: Q01DX009 (ip), vehicle: saline sonified); 91 % of control under setting [15]; 96 % of control (dose: 300.0 mg/kg/injection, schedule: Q01DX009 (ip), vehicle: saline sonified); 110 % of control under setting [16].
